Measured values as given in publication PMC11198769, “Enhancement of transcription efficiency by TAR-Tat system increases the functional expression of human olfactory receptors” (PLOS ONE, 2024).
pEC50: −log10 of the molar value.

How the values were obtained:
Experiment in all cases: hOR assay (GloSensor cAMP luciferase), dose-response
Assay type in all cases: cell-based
[1] = biological target: T1, OR1A1 (Homo sapiens, UniProt Q9P1Q5)
T1 construct: Lucy tag (N); FLAG (N); Rho tag (N); expressed in transfected cells; host or cells: Flp-In T-REx-293 cells stably expressing RTP1S, Gαolf and Ric8-b
T1 sequence (Q9P1Q5 1-309): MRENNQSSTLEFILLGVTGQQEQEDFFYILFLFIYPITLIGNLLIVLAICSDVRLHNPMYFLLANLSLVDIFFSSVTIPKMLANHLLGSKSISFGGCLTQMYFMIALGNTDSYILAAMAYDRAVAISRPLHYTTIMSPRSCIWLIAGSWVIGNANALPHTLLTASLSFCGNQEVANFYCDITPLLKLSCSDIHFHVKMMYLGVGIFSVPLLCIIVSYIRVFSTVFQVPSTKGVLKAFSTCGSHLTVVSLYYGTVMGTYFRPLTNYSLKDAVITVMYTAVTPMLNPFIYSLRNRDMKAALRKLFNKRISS

[2] = biological target: T2, OR2B3 (Homo sapiens, UniProt O76000); conditions: OR2B3, with or without the TAR-Tat system
T2 construct: Lucy tag (N); FLAG (N); Rho tag (N); expressed in transfected cells; host or cells: Flp-In T-REx-293 cells stably expressing RTP1S, Gαolf and Ric8-b
T2 sequence (O76000 1-313): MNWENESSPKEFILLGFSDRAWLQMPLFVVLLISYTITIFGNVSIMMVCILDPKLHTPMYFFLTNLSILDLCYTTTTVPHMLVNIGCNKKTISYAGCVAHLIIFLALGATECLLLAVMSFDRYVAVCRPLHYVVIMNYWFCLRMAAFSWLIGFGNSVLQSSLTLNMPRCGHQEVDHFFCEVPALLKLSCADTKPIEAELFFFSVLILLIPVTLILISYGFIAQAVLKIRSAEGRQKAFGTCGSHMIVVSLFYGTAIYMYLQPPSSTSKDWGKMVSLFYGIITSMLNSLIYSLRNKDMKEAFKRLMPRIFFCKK

[3] = biological target: T3, OR56B1 (Homo sapiens, UniProt Q8NGI3); conditions: OR56B1, with or without the TAR-Tat system
T3 construct: Lucy tag (N); expressed in transfected cells; host or cells: Flp-In T-REx-293 cells stably expressing RTP1S, Gαolf and Ric8-b
T3 sequence (Q8NGI3 1-324): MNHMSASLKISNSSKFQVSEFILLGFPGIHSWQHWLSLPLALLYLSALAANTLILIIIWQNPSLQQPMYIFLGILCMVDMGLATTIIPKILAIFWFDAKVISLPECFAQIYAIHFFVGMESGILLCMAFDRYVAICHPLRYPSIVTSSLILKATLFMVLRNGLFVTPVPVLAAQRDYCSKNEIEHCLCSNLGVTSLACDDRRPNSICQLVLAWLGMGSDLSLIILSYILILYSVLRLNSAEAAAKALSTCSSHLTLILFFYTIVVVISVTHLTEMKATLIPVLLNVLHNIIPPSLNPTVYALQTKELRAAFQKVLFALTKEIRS

[4] = biological target: T4, OR5K1 (Homo sapiens, UniProt Q8NHB7)
T4 construct: Lucy tag (N); FLAG (N); Rho tag (N); expressed in transfected cells; host or cells: Flp-In T-REx-293 cells stably expressing RTP1S, Gαolf and Ric8-b
T4 sequence (Q8NHB7 1-308): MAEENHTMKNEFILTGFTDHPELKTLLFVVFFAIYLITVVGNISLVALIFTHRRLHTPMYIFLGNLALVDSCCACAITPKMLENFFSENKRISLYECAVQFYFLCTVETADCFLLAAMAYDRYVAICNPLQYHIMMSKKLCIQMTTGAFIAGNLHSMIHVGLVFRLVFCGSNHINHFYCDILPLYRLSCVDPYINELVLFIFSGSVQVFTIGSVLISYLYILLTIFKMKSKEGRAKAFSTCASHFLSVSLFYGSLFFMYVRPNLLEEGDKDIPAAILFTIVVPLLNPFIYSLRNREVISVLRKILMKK

[5] = biological target: T5, OR8B3 (Homo sapiens, UniProt Q8NGG8); conditions: OR8B3, with or without the TAR-Tat system
T5 construct: Lucy tag (N); FLAG (N); Rho tag (N); expressed in transfected cells; host or cells: Flp-In T-REx-293 cells stably expressing RTP1S, Gαolf and Ric8-b
T5 sequence (Q8NGG8 1-313): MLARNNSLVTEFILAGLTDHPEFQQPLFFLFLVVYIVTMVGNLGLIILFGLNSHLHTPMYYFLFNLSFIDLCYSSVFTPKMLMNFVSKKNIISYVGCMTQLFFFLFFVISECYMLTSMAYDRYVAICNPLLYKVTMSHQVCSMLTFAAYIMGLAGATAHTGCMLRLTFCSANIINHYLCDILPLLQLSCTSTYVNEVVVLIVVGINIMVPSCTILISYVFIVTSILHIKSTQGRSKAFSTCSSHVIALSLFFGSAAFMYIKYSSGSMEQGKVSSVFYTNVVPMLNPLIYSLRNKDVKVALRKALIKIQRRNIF

- pEC50 ([1]; OR1A1/pHEK (with TAR-Tat system), read-out: EC50 of n-hexanal concentration-response relationship): 3.00
- concentration-dependent response to n-hexanal [2]: no concentration-dependent response
- concentration-dependent response to n-hexanal [3]: no concentration-dependent response
- pEC50 ([4]; OR5K1/pHEK (with TAR-Tat system), read-out: EC50 of n-hexanal concentration-response relationship): 4.96
- concentration-dependent response to n-hexanal [5]: no concentration-dependent response
SMILES: CCCCCC=O [n-hexanal]
- concentration-dependent response to n-hexanal ([1]; OR1A1, with and without the TAR-Tat system): concentration-dependent responses only with the TAR-Tat system
- concentration-dependent response to n-hexanal ([4]; OR5K1, with and without the TAR-Tat system): concentration-dependent responses only with the TAR-Tat system
